# In patent US12129509B2, “Apparatus, systems, and methods for determining the susceptibility of infectious agents to anti-infectives” (priority 2018, dated 2024):
# What was measured:
# [1] = system: E. coli of an unknown strain; experiment: pH and ORP growth curves of E. coli with Ciprofloxacin in diagnostic device 102 (FIGS. 7A and 7B); assay type: cell-based
# From the text: FIGS. 7A and 7B illustrate pH growth curves and ORP growth curves of E. coli in the presence of various concentrations of the antibiotic Ciprofloxacin, respectively. The growth curves were generated using a computing device 158 coupled to a parameter analyzer 156 coupled to the diagnostic device 102. Similar types of growth curves can also be generated using the computing device 158 coupled to the parameter analyzer 156 coupled to the diagnostic device 202.
# An inoculum solution 110 comprising E. coli of an unknown strain (e.g., a positive blood culture (PBC) diluted to 5×10^5 colony-forming units (CFU)/mL of E. coli in Mueller Hinton (MH) broth) was introduced to the sample receiving space 112 of the diagnostic device 102. The inoculum solution 110 was allowed to fill the plurality wells 120 of the diagnostic device 102 including the growth control wells 134 and a number of active electrode wells 136. A water immiscible liquid 152 was then introduced into the sample receiving space 112 to seal the wells 120 and the entire diagnostic device 102 was incubated at an elevated temperature.
# The computing device 158 generated the growth curves based on changes in the solution characteristics (e.g., changes in pH of the pH electrode wells 126 and changes in ORP of the ORP electrode wells 128) of the inoculum solution 110 within the growth control wells 134 and the various active electrode wells 136. The growth control wells 134 comprised at least one pH electrode well 126 and at least one ORP electrode well 128 devoid of the antibiotic. The active electrode wells 136 comprised dried Ciprofloxacin at concentrations of 2 μg/mL, 4 μg/mL, 8 μg/mL, 16 μg/mL, and 32 μg/mL.
# This curve pattern or shape can be attributed to cellular activity undertaken by the active E. coli within the growth control wells 134. FIGS. 7A and 7B also illustrate that the three growth curves generated from measurements of the inoculum solution 110 within the active electrode wells 136 comprising 2 μg/mL and 4 μg/mL of Ciprofloxacin mimicked and followed the growth pattern of the inoculum solution 110 within the growth control wells 134.
# [2] = system: E. coli of an unknown strain; experiment: pH growth curves of E. coli with Levofloxacin in diagnostic device 102 (FIG. 6); assay type: cell-based; settings: Escherichia coli, E. coli diluted in Mueller Hinton broth, wells with 1, 2 and 4 μg/mL, read-out: minimum inhibitory concentration (MIC)
# From the text: FIG. 6 illustrates pH growth curves of E. coli in the presence of various concentrations of the antibiotic Levofloxacin. The growth curves were generated using a computing device 158 coupled to a parameter analyzer 156 coupled to the diagnostic device 102. Similar types of growth curves can also be generated using the computing device 158 coupled to the parameter analyzer 156 coupled to the diagnostic device 202. An inoculum solution 110 comprising E. coli of an unknown strain (diluted in Mueller Hinton (MH) broth) was introduced to the sample receiving space 112 of the diagnostic device 102. The inoculum solution 110 was allowed to fill the plurality wells 120 of the diagnostic device 102 including the growth control wells 134 and a number of active electrode wells 136. A water immiscible liquid 152 was then introduced into the sample receiving space 112 to seal the wells 120 and the entire diagnostic device 102 was incubated at an elevated temperature. The computing device 158 generated the growth curves based on a change in the pH of the inoculum solution 110 within a growth control well 134 and three active electrode wells 136. The growth control well 134 comprised a pH electrode 130 within the well and was devoid of the antibiotic. […]
Compound,"susceptibility of the strain at the concentration ([1]; Ciprofloxacin 2 μg/mL and 4 μg/mL, curves followed growth control)","susceptibility of the strain at the concentration ([1]; Ciprofloxacin 8 μg/mL, delayed change in pH and ORP)","growth of E. coli in active electrode wells ([1]; Ciprofloxacin 16 μg/mL and 32 μg/mL, curves substantially flat lines)",susceptibility of the strain (overall) ([1]; based on MIC from pH and ORP growth curves),MIC [2] [µg/mL]
O=C(O)c1cn(C2CC2)c2cc(N3CCNCC3)c(F)cc2c1=O [Ciprofloxacin],resistant or not susceptible,intermediate susceptibility,no noticeable growth,generally resistant,–
C[C@H]1COc2c(N3CCN(C)CC3)c(F)cc3c(=O)c(C(=O)O)cn1c23 [Levofloxacin],–,–,–,–,1
